The values that follow are results of earlier work, collected in patent publication US7494668B2, “Fast water-dispersible domperidone tablets” (Laboratorio Medinfar-Produtos Farmaceuticos, S.A., priority 2004, dated 2009).

For `O=c1[nH]c2ccccc2n1CCCN1CCC(n2c(=O)[nH]c3cc(Cl)ccc32)CC1` [Domperidone, 5-chloro-1-[1-[3-(2-oxo-2,3-dihydro-1H-benzimidazol-1-yl)propyl]piperidine-4-yl]-1,3-dihydro-2H-benzimidazol-2-one], the solubility in water result is given as “practically insoluble in water”.
For maleate, the solubility in water entry is reported as “soluble in water”.
